In patent publication US10047051B2, “Substituted pyridines and method of use” (AbbVie S.á{acute over (.)}r.l., priority 2015, dated 2018):

What was measured:
CFTR ΔF508 mutant = target: T1, CFTR ΔF508 mutant (Homo sapiens, UniProt P13569, DEL508-508); test: YFP-halide influx assay for the CFTR-ΔF508 mutation (CFBE41o- cells); format: cell-based; details: forskolin 10.67 μM; for EC50: from (1−F/F0) vs concentration plot
T1 construct: expressed in transfected cells; host or cells: CFBE41o- cells, adenoviral transduction
From the text: The YFP halide influx assay measured the functionality of the cystic fibrosis Transmembrane Conductance regulator (CFTR) channels in the cystic fibrosis bronchial epithelium cell line CFBE41o-. The assay was used to evaluate the capacity of compounds to increase the open probability of existing CFTR channels in the membrane. It makes use of the observation that the yellow fluorescent protein (YFP) variant YFP H148Q, I152L, F47L has its fluorescence substantially quenched by halide ions like Cl^− and I^− (Galietta, L. J. V., Haggie, P. M., Verkman, A. S., 2001. Green fluorescent protein-based halide indicators with improved chloride and iodide affinities. FEBS Lett. 499, 220-224. doi:10.1016/S0014-5793(01)02561-3; Nagai, T., Ibata, K., Park, E. S., Kubota, M., Mikoshiba, K., Miyawaki, A., 2002. A variant of yellow fluorescent protein with fast and efficient maturation for cell-biological applications. Nat. Biotechnol. 20, 87-90. doi: 10.1038/nbt0102-87).
For this purpose, CFBE41o-cells were seeded in 384 well plates (3000 CFBE cells/well). One day after seeding, the CFBE cells were transduced with adenoviral vectors that direct the expression of the CFTR ΔF508 mutant and of the YFP reporter. Cells were incubated at 27° C., 5% CO2 for 24 hours so as to allow for the proper folding and migration to the membrane of the CFTR channel or treated with a CFTR modulator during 24 hours at 37° C.
(§1) The I-induced quenching of fluorescence was recorded on an immediately after injection of iodide for 2 minutes on an FDSS/μCell (Hamamatsu). The capacity of a compound to increase the channel opening was directly correlated with the decrease in fluorescence, and was expressed as (1−(fluorescence after 36 seconds (F)/fluorescence before injection (F0))) and an EC50 was derived from a (1−F/F0) vs compound concentration plot.

CFTR G551D mutant = target: T2, CFTR G551D mutant (Homo sapiens, UniProt P13569, G551D); test: YFP-halide influx assay for the CFTR-G551D mutation (HEK293 cells); format: cell-based; details: forskolin 10.67 μM
T2 construct: expressed in transfected cells; host or cells: HEK293 cells, reverse transfection with plasmids
From the text: The YFP halide influx assay measured the functionality of the cystic fibrosis Transmembrane Conductance regulator (CFTR) channels. The assay was used to evaluate the capacity of compounds to increase the channel opening of existing mutant CFTR channels in the membrane. It makes use of the observation that the yellow fluorescent protein (YFP) variant YFP H148Q, I152L, F47L has its fluorescence substantially quenched by halide ions like Cl^− and I^− (Galietta, L. J. V., Haggie, P. M., Verkman, A. S., 2001. Green fluorescent protein-based halide indicators with improved chloride and iodide affinities. FEBS Lett. 499, 220-224. doi:10.1016/S0014-5793(01)02561-3).
For this purpose, HEK293-cells were seeded in 96 well plates. During seeding, the cells were reverse-transfected with plasmid vectors that direct the expression of the CFTR G551D mutant and of the YFP reporter. Cells were incubated at 37° C., 5% CO2 for 24 hours so as to allow for sufficient expression of the CFTR protein.
as §1, with “I^−-induced” for “I-induced”, “recorded” for “recorded on an”, “I^−” for “iodide”, “7 seconds.” for “2 minutes on an FDSS/μCell (Hamamatsu).”, “7” for “36”

T2 sequence (P13569 whole entry G551D): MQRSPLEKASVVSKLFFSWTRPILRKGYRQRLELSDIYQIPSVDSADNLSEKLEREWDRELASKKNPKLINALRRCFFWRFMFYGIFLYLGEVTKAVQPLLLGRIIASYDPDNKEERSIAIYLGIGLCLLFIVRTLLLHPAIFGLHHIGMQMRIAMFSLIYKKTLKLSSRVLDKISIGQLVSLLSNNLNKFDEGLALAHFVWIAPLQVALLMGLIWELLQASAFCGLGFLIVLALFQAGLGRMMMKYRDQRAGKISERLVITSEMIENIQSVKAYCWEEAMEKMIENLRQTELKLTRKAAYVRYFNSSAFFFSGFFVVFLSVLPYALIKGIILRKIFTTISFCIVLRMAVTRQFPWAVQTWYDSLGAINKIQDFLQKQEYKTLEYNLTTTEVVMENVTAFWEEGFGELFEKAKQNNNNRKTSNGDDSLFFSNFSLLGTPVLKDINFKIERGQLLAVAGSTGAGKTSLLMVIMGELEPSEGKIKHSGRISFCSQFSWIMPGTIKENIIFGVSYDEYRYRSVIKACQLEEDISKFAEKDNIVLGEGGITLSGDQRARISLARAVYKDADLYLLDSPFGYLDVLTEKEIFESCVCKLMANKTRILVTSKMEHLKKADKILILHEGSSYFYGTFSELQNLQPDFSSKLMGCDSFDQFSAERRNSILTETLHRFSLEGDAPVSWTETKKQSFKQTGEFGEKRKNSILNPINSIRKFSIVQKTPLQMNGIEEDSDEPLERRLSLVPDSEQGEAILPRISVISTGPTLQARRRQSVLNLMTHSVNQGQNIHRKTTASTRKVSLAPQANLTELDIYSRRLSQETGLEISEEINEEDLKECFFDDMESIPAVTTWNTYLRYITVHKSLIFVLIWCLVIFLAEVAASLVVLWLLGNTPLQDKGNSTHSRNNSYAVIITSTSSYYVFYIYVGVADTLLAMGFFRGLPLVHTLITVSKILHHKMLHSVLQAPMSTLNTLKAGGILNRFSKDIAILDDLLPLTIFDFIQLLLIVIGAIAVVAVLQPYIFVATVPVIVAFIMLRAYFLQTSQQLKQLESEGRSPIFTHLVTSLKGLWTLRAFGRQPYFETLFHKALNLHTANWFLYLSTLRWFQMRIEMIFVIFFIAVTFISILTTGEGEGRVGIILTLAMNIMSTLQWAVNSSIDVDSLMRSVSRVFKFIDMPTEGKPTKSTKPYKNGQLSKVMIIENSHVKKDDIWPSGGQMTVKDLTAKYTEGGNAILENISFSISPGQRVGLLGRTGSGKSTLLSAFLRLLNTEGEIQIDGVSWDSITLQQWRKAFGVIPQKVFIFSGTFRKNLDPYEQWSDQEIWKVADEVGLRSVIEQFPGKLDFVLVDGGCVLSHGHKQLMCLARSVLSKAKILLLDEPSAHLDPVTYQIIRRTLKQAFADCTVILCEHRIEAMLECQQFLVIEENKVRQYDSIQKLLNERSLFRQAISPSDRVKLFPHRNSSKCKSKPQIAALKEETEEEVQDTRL
T1 sequence (P13569 with tags, fused parts or gaps DEL508-508): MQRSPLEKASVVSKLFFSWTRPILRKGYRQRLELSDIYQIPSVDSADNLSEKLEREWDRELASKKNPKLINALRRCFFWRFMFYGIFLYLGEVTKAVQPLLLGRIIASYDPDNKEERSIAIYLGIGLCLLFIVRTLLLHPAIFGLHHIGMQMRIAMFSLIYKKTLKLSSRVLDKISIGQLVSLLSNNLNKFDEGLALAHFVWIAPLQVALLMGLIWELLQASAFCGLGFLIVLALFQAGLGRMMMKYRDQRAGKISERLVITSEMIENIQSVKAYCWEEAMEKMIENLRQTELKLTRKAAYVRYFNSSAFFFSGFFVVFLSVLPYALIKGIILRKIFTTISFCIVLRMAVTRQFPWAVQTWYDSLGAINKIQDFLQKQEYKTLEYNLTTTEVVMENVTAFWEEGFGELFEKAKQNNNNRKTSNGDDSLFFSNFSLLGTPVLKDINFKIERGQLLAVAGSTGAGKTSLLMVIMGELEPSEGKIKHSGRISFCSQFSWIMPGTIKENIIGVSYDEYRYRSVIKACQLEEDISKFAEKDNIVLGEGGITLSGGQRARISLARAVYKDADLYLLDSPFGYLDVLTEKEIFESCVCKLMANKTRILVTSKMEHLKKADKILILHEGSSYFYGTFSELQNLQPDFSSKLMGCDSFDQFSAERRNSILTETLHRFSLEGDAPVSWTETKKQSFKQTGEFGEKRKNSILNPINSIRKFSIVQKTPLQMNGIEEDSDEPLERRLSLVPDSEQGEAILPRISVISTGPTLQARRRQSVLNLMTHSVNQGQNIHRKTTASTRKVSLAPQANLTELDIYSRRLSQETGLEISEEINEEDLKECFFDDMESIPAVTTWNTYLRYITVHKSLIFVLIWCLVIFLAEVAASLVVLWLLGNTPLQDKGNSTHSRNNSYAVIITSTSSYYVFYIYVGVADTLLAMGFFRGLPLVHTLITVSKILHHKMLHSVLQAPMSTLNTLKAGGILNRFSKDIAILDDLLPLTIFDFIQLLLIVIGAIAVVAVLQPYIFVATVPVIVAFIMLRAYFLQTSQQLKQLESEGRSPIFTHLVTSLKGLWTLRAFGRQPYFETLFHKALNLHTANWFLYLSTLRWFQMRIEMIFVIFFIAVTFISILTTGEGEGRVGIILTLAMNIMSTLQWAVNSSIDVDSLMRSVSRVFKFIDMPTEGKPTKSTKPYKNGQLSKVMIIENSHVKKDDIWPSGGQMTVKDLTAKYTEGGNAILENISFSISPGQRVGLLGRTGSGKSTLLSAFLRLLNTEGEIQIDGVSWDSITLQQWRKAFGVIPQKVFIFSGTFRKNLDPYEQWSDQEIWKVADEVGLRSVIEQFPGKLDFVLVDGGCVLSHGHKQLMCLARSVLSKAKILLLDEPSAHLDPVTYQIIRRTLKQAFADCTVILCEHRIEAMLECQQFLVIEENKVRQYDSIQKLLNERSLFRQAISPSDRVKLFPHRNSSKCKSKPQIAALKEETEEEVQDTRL

## CC(C)(C)OCC(O)CNC(=O)c1ncc(S(=O)(=O)c2ccc(C(F)(F)F)cc2F)cc1N (stereo not shown) [Compound 224, 3-amino-N-(3-tert-butoxy-2-hydroxypropyl)-5-{[2-fluoro-4-(trifluoromethyl)phenyl]sulfonyl}pyridine-2-carboxamide]
CFTR ΔF508 mutant
  % Activation: 106.0%
  EC50: 8.1 nM
CFTR G551D mutant
  % Activation: 80.6%
  EC50: 276 nM

## COC[C@H](O)CNC(=O)c1ncc(S(=O)(=O)c2ccc(OC(F)(F)F)cc2)cc1N [Compound 69, 3-amino-N-[(2R)-2-hydroxy-3-methoxypropyl]-5-{[4-(trifluoromethoxy)phenyl]sulfonyl}pyridine-2-carboxamide]
CFTR ΔF508 mutant
  % Activation: 102.0%
  EC50: 5.7 nM
CFTR G551D mutant
  % Activation: 85.0%
  EC50: 1080 nM

## CC(C)NC(=O)CNC(=O)c1ncc(S(=O)(=O)c2ccc(OC(F)(F)F)cc2F)cc1N [Compound 135, 3-amino-5-{[2-fluoro-4-(trifluoromethoxy)phenyl]sulfonyl}-N-[2-oxo-2-(propan-2-ylamino)ethyl]pyridine-2-carboxamide]
CFTR ΔF508 mutant
  % Activation: 108.7%
  EC50: 8.5 nM
CFTR G551D mutant
  % Activation: 43.5%
  EC50: 5770 nM

## Nc1cc(S(=O)(=O)CC2CCCO2)cnc1C(=O)NCC(O)C(F)(F)F (stereo not shown) [Compound 238, 3-amino-5-[(tetrahydrofuran-2-ylmethyl)sulfonyl]-N-(3,3,3-trifluoro-2-hydroxypropyl)pyridine-2-carboxamide]
CFTR ΔF508 mutant
  % Activation: 53.7%
  EC50: 538 nM
CFTR G551D mutant
  % Activation: 4.8%
  EC50: > 10000 nM

## C[C@H]1CCCN1S(=O)(=O)c1cnc(C(=O)NCc2nccc(=O)[nH]2)c(N)c1 [Compound 282, 3-amino-5-{[(2S)-2-methylpyrrolidin-1-yl]sulfonyl}-N-[(6-oxo-1,6-dihydropyrimidin-2-yl)methyl]pyridine-2-carboxamide]
CFTR ΔF508 mutant
  % Activation: 47.0%
  EC50: > 667 nM
CFTR G551D mutant
  % Activation: 1.8%
  EC50: > 10000 nM

## CC(C)c1ccc(S(=O)(=O)c2cnc(C(=O)NCC(O)C(F)(F)F)c(N)c2)cc1 (stereo not shown) [Compound 246, 3-amino-5-{[4-(propan-2-yl)phenyl]sulfonyl}-N-(3,3,3-trifluoro-2-hydroxypropyl)pyridine-2-carboxamide]
CFTR ΔF508 mutant
  % Activation: 118.0%
  EC50: 3.9 nM
CFTR G551D mutant
  % Activation: 106.0%
  EC50: 391 nM

## Nc1cc(S(=O)(=O)c2ccc(C(F)(F)F)cc2)c(C2CC2)nc1C(=O)NCCO [Compound 258, 3-amino-6-cyclopropyl-N-(2-hydroxyethyl)-5-{[4-(trifluoromethyl)phenyl]sulfonyl}pyridine-2-carboxamide]
CFTR ΔF508 mutant
  % Activation: 119.0%
  EC50: 9.9 nM
CFTR G551D mutant
  % Activation: 108.0%
  EC50: 517 nM

## Nc1cc(S(=O)(=O)c2ccc(OC(F)(F)F)cc2F)cnc1C(=O)N1CC(O)C1 [Compound 77, (3-amino-5-{[2-fluoro-4-(trifluoromethoxy)phenyl]sulfonyl}pyridin-2-yl) (3-hydroxyazetidin-1-yl)methanone]
CFTR ΔF508 mutant
  % Activation: 98.8%
  EC50: 15.3 nM
CFTR G551D mutant
  % Activation: 41.0%
  EC50: > 3330 nM

## Nc1cc(S(=O)(=O)c2ccc(OC(F)(F)F)cc2)cnc1C(=O)N1CCC1 [Compound 65, (3-amino-5-{[4-(trifluoromethoxy)phenyl]sulfonyl}pyridin-2-yl)(azetidin-1-yl)methanone]
CFTR ΔF508 mutant
  % Activation: 119.0%
  EC50: 41.4 nM
CFTR G551D mutant
  % Activation: 67.8%
  EC50: 1160 nM

## COCC1(C)CN(C(=O)c2ncc(S(=O)(=O)c3ccc(C(F)(F)F)cc3)cc2N)C1 [Compound 232, (3-amino-5-{[4-(trifluoromethyl)phenyl]sulfonyl}pyridin-2-yl)[3-(methoxymethyl)-3-methylazetidin-1-yl]methanone]
CFTR ΔF508 mutant
  % Activation: 94.5%
  EC50: 68.4 nM
CFTR G551D mutant
  % Activation: 66.0%
  EC50: 1490 nM

## CC[C@@H](CO)NC(=O)c1ncc(S(=O)(=O)c2ccc(OC(F)(F)F)cc2)cc1N [Compound 142, 3-amino-N-[(2S)-1-hydroxybutan-2-yl]-5-{[4-(trifluoromethoxy)phenyl]sulfonyl}pyridine-2-carboxamide]
CFTR ΔF508 mutant
  % Activation: 97.9%
  EC50: 11.9 nM
CFTR G551D mutant
  % Activation: 44.7%
  EC50: 399 nM

## Nc1cc(S(=O)(=O)c2ccccc2OC(F)(F)F)cnc1C(=O)N1CC(O)C1 [Compound 76, (3-amino-5-{[2-(trifluoromethoxy)phenyl]sulfonyl}pyridin-2-yl)(3-hydroxyazetidin-1-yl)methanone]
CFTR ΔF508 mutant
  % Activation: 112.0%
  EC50: 4.3 nM
CFTR G551D mutant
  % Activation: 54.3%
  EC50: > 3330 nM

## CC(C)S(=O)(=O)c1cc(N)c(C(=O)NC[C@H](C)O)nc1-c1ccc(F)cc1 [Compound 264, 3-amino-6-(4-fluorophenyl)-N-[(2S)-2-hydroxypropyl]-5-(propan-2-ylsulfonyl)pyridine-2-carboxamide]
CFTR ΔF508 mutant
  % Activation: 76.0%
  EC50: 213 nM
CFTR G551D mutant
  % Activation: 6.51%
  EC50: 2000 nM

## Nc1cc(S(=O)(=O)c2cccc(F)c2)cnc1C(=O)NC[C@@H](O)C(F)(F)F [Compound 254, 3-amino-5-[(3-fluorophenyl)sulfonyl]-N-[(2R)-3,3,3-trifluoro-2-hydroxypropyl]pyridine-2-carboxamide]
CFTR ΔF508 mutant
  % Activation: 106.0%
  EC50: 5 nM
CFTR G551D mutant
  % Activation: 56.0%
  EC50: 1450 nM

## Nc1cc(S(=O)(=O)c2ccc(OC(F)(F)F)cc2)cnc1C(=O)NC1COC2(CCCCC2)C1 (stereo not shown) [Compound 149, 3-amino-N-(1-oxaspiro[4.5]dec-3-yl)-5-{[4-(trifluoromethoxy)phenyl]sulfonyl}pyridine-2-carboxamide]
CFTR ΔF508 mutant
  % Activation: 91.2%
  EC50: 179 nM
CFTR G551D mutant
  % Activation: 42.7%
  EC50: > 1670 nM

## C[C@H](O)CNC(=O)c1ncc(S(=O)(=O)c2ccc(C(F)(F)F)cc2F)cc1N [Compound 98, 3-amino-5-{[2-fluoro-4-(trifluoromethyl)phenyl]sulfonyl}-N-[(2S)-2-hydroxypropyl]pyridine-2-carboxamide]
CFTR ΔF508 mutant
  % Activation: 95.6%
  EC50: 7.4 nM
CFTR G551D mutant
  % Activation: 60.2%
  EC50: 685 nM

## C[C@H](O)CNC(=O)c1nc(-c2ccc(F)cc2)c(S(=O)(=O)CCO)cc1N [Compound 262, 3-amino-6-(4-fluorophenyl)-5-[(2-hydroxyethyl)sulfonyl]-N-[(2S)-2-hydroxypropyl]pyridine-2-carboxamide]
CFTR ΔF508 mutant
  % Activation: 8.9%
  EC50: > 1000 nM
CFTR G551D mutant
  % Activation: 5.5%
  EC50: > 1000 nM

## Nc1cc(S(=O)(=O)c2ccc(C(F)(F)F)cc2)cnc1C(=O)N1C[C@@H](O)[C@H](O)C1 [Compound 229, (3-amino-5-{[4-(trifluoromethyl)phenyl]sulfonyl}pyridin-2-yl) [(3R,4R)-3,4-dihydroxypyrrolidin-1-yl]methanone]
CFTR ΔF508 mutant
  % Activation: 24.0%
  EC50: > 2000 nM
CFTR G551D mutant
  % Activation: 1.0%
  EC50: > 10000 nM

## CN1CC[C@@H](NC(=O)c2ncc(S(=O)(=O)c3ccc(OC(F)(F)F)cc3)cc2N)C1 [Compound 208, 3-amino-N-[(3R)-1-methylpyrrolidin-3-yl]-5-{[4-(trifluoromethoxy)phenyl]sulfonyl}pyridine-2-carboxamide]
CFTR ΔF508 mutant
  % Activation: 70.5%
  EC50: 290 nM
CFTR G551D mutant
  % Activation: 20.0%
  EC50: > 10000 nM
